This assay concerns aortic rings pre-contracted with phenylephrine. Further details: species or system Wistar Kyoto rats. Here is the method: Ten-week-old male Wistar Kyoto rats were anesthetized with ketamine (35 mg/kg) and xylazine (7 mg/kg) administered intraperitoneally. The aortas were removed, dissected from the extravascular connective tissue, and cut into 3 mm long rings in fresh Krebs buffer pH 7.4 (KRB, 120 mM NaCl, 25 mM NaHCO3, 5 mM glucose, 4.8 mM KCI, 2.5 mM CaCl2, 1.2 mM MgSO4, […], and 1.2 mM KH2PO4) freshly bubbled with 5% CO2 in air. They were then mounted on a wire myograph (DMT 620M) and placed in an organ bath with KRB, pH 7.4 at 37°C with constant bubbling and equilibrated for 30 min at a tension of 1.5 g. The vasodilator response of ^DH^DF^DP^DH^DI^DY^DV^DR^DD^LD^LR^LV^LY^LI^LH^LP (SEQ ID NO: 1), which corresponds to a fusion of the angiotensin-(1-9) retro-enantio peptide (D-amino acids, N-terminal to C-terminal direction: ^DH^DF^DP^DH^DI^DY^DV^DR^DD (SEQ ID NO: 2)) and the angiotensin-(1-7) peptide (L-amino acids, N-terminal to C-terminal direction: ^LD^LR^LV^LY^LI^LH^LP (SEQ ID NO: 3) were evaluated in dose-response curves [10^-18 to 10^-4 M] to these molecules in baths with aortic rings pre-contracted with phenylephrine 10^-7 M. Carbacol (10^-6-10^-4 M) was used as a relaxation control. The peptides were added in cumulative concentrations to the baths when the vasoconstrictor response to phenylephrine reached its maximum level. […]

Molecules are shown by their SMILES. Where a SMILES comes first, the peptide text is derived from it. [ ]: non-standard residue; d: D form.

Two molecules from patent publication EP4775589A1, “PHARMACEUTICAL COMPOSITION COMPRISING A PEPTIDE OR A COMBINATION OF PEPTIDES AGONISTIC TO THE MAS, AT1 AND AT2 RECEPTORS” (Pontificia Universidad Católica de Chile, priority 2023, dated 2025) can be followed below.

The EC50 is the midpoint of the concentration-response curve. Read a low EC50 as higher potency in that assay.

Molecule `CC[C@@H](C)[C@@H](NC(=O)[C@@H](Cc1c[nH]cn1)NC(=O)[C@H]1CCCN1C(=O)[C@@H](Cc1ccccc1)NC(=O)[C@H](N)Cc1c[nH]cn1)C(=O)N[C@H](Cc1ccc(O)cc1)C(=O)N[C@@H](C(=O)N[C@H](CCCNC(=N)N)C(=O)N[C@H](CC(=O)O)C(=O)N[C@@H](CC(=O)O)C(=O)N[C@@H](CCCNC(=N)N)C(=O)N[C@H](C(=O)N[C@@H](Cc1ccc(O)cc1)C(=O)N[C@H](C(=O)N[C@@H](Cc1c[nH]cn1)C(=O)N1CCC[C@H]1C(=O)O)[C@@H](C)CC)C(C)C)C(C)C` [HP16, ^DH^DF^DP^DH^DI^DY^DV^DR^DD^LD^LR^LV^LY^LI^LH^LP] returned an EC50 of 0.00509 nM.

With `CC[C@@H](C)[C@@H](NC(=O)[C@@H](Cc1c[nH]cn1)NC(=O)[C@H]1CCCN1C(=O)[C@@H](Cc1ccccc1)NC(=O)[C@H](N)Cc1c[nH]cn1)C(=O)N[C@H](Cc1ccc(O)cc1)C(=O)N[C@@H](C(=O)N[C@H](CCCNC(=N)N)C(=O)N[C@H](CC(=O)O)C(=O)O)C(C)C` [RI-Ang-(1-9), ^DH^DF^DP^DH^DI^DY^DV^DR^DD] (H-[dH][dF][dP][dH][dI][dY][dV][dR][dD]-OH), the EC50 came to 0.0767 nM.
